Laboratory results from US4678782A, “3S-formamido azetidinone antibacterial agents, their preparation and use” (Beecham Group p.l.c., priority 1982, dated 1987).

Legend:
Format in all cases: cell-based
[1] = system: E. coli JT4; assay: standard microtitre (MIC) test, E. coli JT4; conditions: Escherichia coli
Text: (§1) In a standard microtitre (MIC) test, the compound of Example 14 gave the following data: […]

[2] = system: E. coli NCTC 10418; assay: standard microtitre (MIC) test, E. coli NCTC 10418; conditions: Escherichia coli, NCTC10418
Text: as §1

[3] = system: S. marcescens US32; assay: standard microtitre (MIC) test, S. marcescens US32; conditions: Serratia marcescens
Text: as §1

[4] = system: K. aerogenes A; assay: standard microtitre (MIC) test, K. aerogenes A; conditions: Klebsiella aerogenes
Text: as §1

[5] = system: E. cloacae N1; assay: standard microtitre (MIC) test, E. cloacae N1; conditions: Enterobacter cloacae
Text: as §1

[6] = system: P. morganii; assay: standard microtitre (MIC) test, P. morganii; conditions: Morganella morganii
Text: as §1

[7] = system: S. aureus Russell; assay: standard microtitre (MIC) test, S. aureus Russell; conditions: Staphylococcus aureus
Text: as §1

## CCN1CCN(C(=O)N[C@@H](C(=O)NC2(NC=O)CN(S(=O)(=O)O)C2=O)c2ccccc2)C(=O)C1=O (stereo partly drawn) [Example 14, (3RS)-Potassium-3-[D-2-(4-Ethyl-2,3-dioxopiperazin-1-yl-carboxamido)-2-phenylacetamido]-3-formamido-2-oxo-azetidine-1-sulphonate]
[1]
  MIC: 25 µg/mL
[2]
  MIC: 12.5 µg/mL
[3]
  MIC: 12.5 µg/mL
[4]
  MIC: 3.2 µg/mL
[5]
  MIC: 12.5 µg/mL
[6]
  MIC: 6.4 µg/mL
[7]
  MIC: 3.2 µg/mL
